Where “and” joins values, the source holds several entries; their conditions need not be identical. Equal values may be shown once.
Tested on: zrt1 mutant (ZHY1) cells
Type: cell-based, Saccharomyces cerevisiae
Conditions: for effect on zrt1 growth in LIM: 500 μM metal added to iron-limiting medium LIM (1 mM EDTA)
Procedure: Strains used were DY1457 (MATα ade6 can1 his3 leu2 trp1 ura3) and ZHY1 (MaTα ade6 can1 his3 leu2 trp1 ura3 zrt1:: LEU2). Yeast were grown in standard culture media (SD, YPD) (Eide, D., Davis-Kaplan S., Jordan, I., Sipe, D., and Kaplan, J. (199: 2) J. Biol. Chem. 267, 20774-20781) supplemented with necessary auxotrophic requirements and either 2% glucose or 2% galactose. A zinc-limiting medium (LZM) was prepared in the same manner as LIM (Eide and Guarenete (1992) J. Gen. Microbiol. 138:347-354) except that […]. Cell number in liquid cultures was determined by measuring the optical density of cell suspensions at 600 nm (A600) and converting to cell number with a standard curve.
Strains used were DY1457 (MATα ade6 can1 his3 leu2 trp1 ura3), ZHY1 (AMTα ade6 can1 his3 leu2 trp1 ura3 zrt1::LEU2), ZHY2 (MATα ade6 can1 his3 leu2 trp1 ura3 zrt2::HIS3), and ZHY3 (MATα ade6 can1 his3 leu2 trp1 ura3 zrt1::LEU2 zrt2::HIS3). Yeast were grown in YP or SD media (Sherman et al. (1986) Methods in Yeast Genetics, Cold Spring Harbor Laboratory, Cold Spring Harbor, N.Y.) supplemented with necessary auxotrophic requirements and either 2% glucose or 2% galactose. Zinc-limiting YP and SD agar plates contained either bathophenanthroline disulfonate (BPS, 200 μM) or EDTA (1 mM), respectively. A liquid zinc-limiting medium (low zinc medium, LZM) was prepared in the same manner as low iron medium (LIM) (Eide and Guarente (1992) J. Gen. Microbiol. 138:347-354) except that the […]. LZM is similar in composition to SD medium with two modifications essential to controlling zinc availability. First, 1 mM EDTA is added to provide buffering for the concentration of free metal ions. Second, the medium is pH-buffered at 4.2 with 20 mM citrate to prevent pH changes that could alter the metal binding ability of EDTA. LZM was also prepared without EDTA ([…]) which is less zinc-limiting because the predominant chelator in this medium, citrate, binds zinc with less affinity than does EDTA. The concentrations of free (i.e. unchelated) zinc were calculated using MAXCHELATOR software (Chris Patton, Stanford University). Cell number in liquid cultures was determined by measuring the absorbance of cell suspensions at 600 nm (OD600) and converting to cell number with a standard curve.
To examine the function of ZRT1, a disruption mutation, zrt1::LEU2, was constructed by inserting the LEU2 gene into the center of ZRT1 (FIG. 6). This zrt1 disruption allele was then introduced into a haploid yeast strain. […] Because of the high EDTA concentration in LIM (1 mM), this medium is expected to have low available levels of other metals that are bound tightly by this chelator. Supplements of other metals were tested for improved growth of the zrt1 mutant in LIM. […] To study this effect further, a low zinc medium, LZM, was developed in which cell growth could be limited by zinc deficiency and the growth response of the wild type and zrt1 mutant strains to increasing levels of supplemented zinc was examined. Wild type (DY1457, squares) and zrt1 mutant (ZHY1, circles) cells were inoculated into LZM supplemented with the indicated amount of ZnSO4 and grown for 16 hours prior to cell number determination. […] Mutant zrt1 cells attained this same maximum number of cell divisions only with zinc supplements of 750 μM or more, i.e. a 75-fold increase in the zinc requirement of the zrt1 mutant compared to the wild type.
To further assess the role of the low affinity system as a source of zinc, growth of wild type and zrt2 cells in a zinc-limiting medium, LZM, supplemented with increasing amounts of zinc was examined. The same strains as in FIG. 15 were grown for six hours in SD glucose medium, harvested, washed in LZM, and reinoculated into either LZM (FIG. 15A) or LZM-EDTA (FIG. 15B) supplemented with the indicated concentrations of ZnCl2 ([Zn]T). […]

Row | SMILES | effect on zrt1 growth in LIM | increase in zinc requirement of zrt1 mutant compared to wild type (growth in zinc-limiting medium) | total zinc required for maximum number of cell divisions (zrt1, LZM) | total zinc for maximum number of divisions (zrt1, LZM-EDTA (LZM without EDTA), 16 hours) [µM] | calculated free zinc [Zn]F for maximum number of divisions (zrt1, LZM-EDTA, 16 hours) [nM] | growth rate versus untreated culture (zrt1 cells, SD glucose supplemented with 2 mM ZnCl2)
1 | [Cl-].[Cl-].[Co+2] [Co] | no effect | – | – | – | – | –
2 | [Cl][Cu][Cl] [Cu] | no effect | – | – | – | – | –
3 | [Cl][Mn][Cl] [Mn] | no effect | – | – | – | – | –
4 | [Zn+2] [zinc] | greatly enhanced growth | 75 fold and 100 fold | approximately 500 μM | 0.5 | ~6 | No difference in growth rate
